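Tested at 5 concentrations; 48 h exposure; 96-well plates; endpoints linearly interpolated, else capped at highest concentration. Abbreviation: GI50, concentration required for 50% inhibition of growth. TGI: total growth inhibition.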 Some results are limits rather than exact numbers.

Some test systems named below: HL-60(TB) leukemia; OVCAR-8 ovarian; EKVX NSCLC; SNB-19 CNS; NCI-H460 lung; NCI-H522 lung; SK-MEL-5 melanoma; UACC-62 melanoma; CCRF-CEM leukemia; RXF 393 renal.
Assay in all cases: growth of human tumour cells (NCI), 48 h

With `CC1(C)C2CCC13CS(=O)(=O)N1O[C@]13C(=O)O2` (some centres undefined), the TGI in the experiment with HL-60(TB) leukemia, with OVCAR-8 ovarian, with EKVX NSCLC, in the experiment with SNB-19 CNS, in the experiment with NCI-H460 lung and in the experiment with NCI-H522 lung was above 100 µM throughout.

As for `O=C(O)/C(Cl)=C(\Cl)C(=O)Nc1ccc(Cl)c(Cl)c1Cl`, the TGI with SK-MEL-5 melanoma is 68.9 µM; with HL-60(TB) leukemia, 45.4 µM; in the experiment on UACC-62 melanoma it was 26.1 µM; with CCRF-CEM leukemia it was above 100 µM; with EKVX NSCLC it was 37.1 µM; with SNB-19 CNS it was 30.2 µM. For the same molecule, the TGI in the experiment with NCI-H460 lung stood at 45.9 µM; in the experiment with NCI-H522 lung, 23.7 µM.

For the molecule `Cc1cc(N(CCC#N)CCC#N)ccc1/C=C1/N=C(c2ccccc2)N(N)C1=O`, the TGI in the experiment with SK-MEL-5 melanoma, in the experiment with HL-60(TB) leukemia, with UACC-62 melanoma, with OVCAR-8 ovarian, in the experiment on CCRF-CEM leukemia and in the experiment on EKVX NSCLC was above 100 µM in each case. In addition, the TGI in the experiment with SNB-19 CNS is above 100 µM; with NCI-H522 lung, 92.1 µM.

As to `Cn1c2ccccc2n2c(=O)c3c(c(C#N)c12)CCCC3`, the TGI in the experiment with SK-MEL-5 melanoma, with HL-60(TB) leukemia, in the experiment with OVCAR-8 ovarian, with EKVX NSCLC, in the experiment with SNB-19 CNS and in the experiment with NCI-H460 lung was above 100 µM throughout. The TGI in the experiment with RXF 393 renal was above 100 µM.

For the molecule `Cc1cc2c(c(C(=O)O)c1C)-c1cccc(F)c1C2=O`, the TGI with SK-MEL-5 melanoma, in the experiment on UACC-62 melanoma, in the experiment with OVCAR-8 ovarian, in the experiment on CCRF-CEM leukemia, in the experiment with EKVX NSCLC and in the experiment with SNB-19 CNS was above 100 µM in each case. For the same molecule, the TGI in the experiment with NCI-H460 lung, with NCI-H522 lung and with RXF 393 renal was above 100 µM each time.

With `COC1O[C@@H]2C[C@H]3C(C)(C)CCC[C@]3(C)C3=CCCC1[C@@]32C` (some centres undefined), the GI50 with SK-MEL-5 melanoma, in the experiment with UACC-62 melanoma, with OVCAR-8 ovarian, with CCRF-CEM leukemia, with EKVX NSCLC and with SNB-19 CNS was above 100 µM throughout. Besides, the GI50 in the experiment on NCI-H460 lung, in the experiment on NCI-H522 lung and in the experiment with RXF 393 renal was above 100 µM each time. Further, the TGI in the experiment with SK-MEL-5 melanoma, with UACC-62 melanoma, in the experiment with OVCAR-8 ovarian, in the experiment with CCRF-CEM leukemia, in the experiment with EKVX NSCLC and in the experiment with SNB-19 CNS was above 100 µM in each case. For the same molecule, the TGI with NCI-H460 lung, in the experiment with NCI-H522 lung and in the experiment with RXF 393 renal was above 100 µM each time.

Consider `C[C@@H]1O[C@@H](OC[C@H]2O[C@@H](OCCc3ccc(O)c(O)c3)[C@H](O)[C@@H](O)[C@@H]2OC(=O)/C=C/c2ccc(O)c(O)c2)[C@H](O)[C@H](O)[C@H]1O`, for which the GI50 with SK-MEL-5 melanoma, in the experiment on HL-60(TB) leukemia, in the experiment with UACC-62 melanoma, with OVCAR-8 ovarian, in the experiment on EKVX NSCLC and with SNB-19 CNS was above 100 µM throughout. Also, the GI50 in the experiment on NCI-H460 lung, in the experiment with NCI-H522 lung and in the experiment on RXF 393 renal was above 100 µM throughout. The TGI with SK-MEL-5 melanoma, in the experiment with HL-60(TB) leukemia, in the experiment with UACC-62 melanoma, in the experiment on OVCAR-8 ovarian, in the experiment with EKVX NSCLC and with SNB-19 CNS was above 100 µM each time. Besides, the TGI in the experiment with NCI-H460 lung, in the experiment on NCI-H522 lung and in the experiment with RXF 393 renal was above 100 µM in each case.

With `C/C=C(\C)c1cc(O)c(C)c2c1Oc1cc(O)c(Cl)c(C)c1C(=O)O2`, the TGI is 26.9 µM with SK-MEL-5 melanoma; 67.3 µM with HL-60(TB) leukemia; 45.9 µM in the experiment on OVCAR-8 ovarian; 61.2 µM with EKVX NSCLC; 31.6 µM in the experiment on SNB-19 CNS; 39.7 µM in the experiment on NCI-H460 lung. In addition, the TGI with NCI-H522 lung is 51.3 µM; with RXF 393 renal, 34.1 µM.

`COc1cc2c(c(OC)c1OC)-c1ccc(SC)c(=O)cc1[C@@H](NC1OC(CO)C(O)C(O)C1O)CC2` (some centres undefined): the GI50 in the experiment on SK-MEL-5 melanoma is 0.0288 µM; in the experiment on HL-60(TB) leukemia it was 0.0227 µM; with UACC-62 melanoma, 0.0549 µM; with OVCAR-8 ovarian, 0.0387 µM; in the experiment with CCRF-CEM leukemia, 0.0382 µM; with SNB-19 CNS, 0.0797 µM. Besides, the GI50 with NCI-H460 lung is 0.0332 µM; in the experiment on RXF 393 renal it was 0.0613 µM. The TGI with SK-MEL-5 melanoma is 0.195 µM; in the experiment with HL-60(TB) leukemia, 0.0666 µM; in the experiment on UACC-62 melanoma it was above 100 µM; in the experiment on OVCAR-8 ovarian it was above 100 µM; with CCRF-CEM leukemia, above 100 µM; with SNB-19 CNS, above 100 µM. Further, the TGI in the experiment on NCI-H460 lung and with RXF 393 renal was above 100 µM in each case.

Consider `COc1ccc(/C=N/NC(=O)Cn2c(-c3ccc(S(C)(=O)=O)cc3)nc3cc(Cl)ccc32)cc1`, for which the GI50 in the experiment on SK-MEL-5 melanoma was 0.964 µM; in the experiment with HL-60(TB) leukemia it was 0.446 µM; with UACC-62 melanoma it was 0.709 µM; in the experiment on OVCAR-8 ovarian, 1.79 µM; with CCRF-CEM leukemia, 0.318 µM; with EKVX NSCLC, 2.51 µM. For the same molecule, the GI50 is 1.53 µM in the experiment on SNB-19 CNS, 1.51 µM in the experiment on NCI-H460 lung and 0.291 µM in the experiment with NCI-H522 lung. Also, the TGI in the experiment with SK-MEL-5 melanoma was 8.55 µM; in the experiment on HL-60(TB) leukemia, 7.3 µM; with UACC-62 melanoma, above 50 µM; in the experiment on OVCAR-8 ovarian, above 50 µM; in the experiment on CCRF-CEM leukemia it was above 50 µM; in the experiment on EKVX NSCLC, above 50 µM. The TGI in the experiment on SNB-19 CNS is above 50 µM; with NCI-H460 lung, above 50 µM; in the experiment on NCI-H522 lung, 1.7 µM.

For the molecule `Nc1ccc(-c2nc3ccccc3[nH]2)c2ccccc12`, the GI50 in the experiment with SK-MEL-5 melanoma is 1.65 µM; with UACC-62 melanoma, 7.51 µM; with OVCAR-8 ovarian it was 5.2 µM; with CCRF-CEM leukemia it was 2.03 µM; in the experiment on EKVX NSCLC it was 14.5 µM; with SNB-19 CNS, 3.57 µM. The GI50 is 3.9 µM in the experiment with NCI-H460 lung, 3.14 µM with NCI-H522 lung and 1.83 µM with RXF 393 renal. Besides, the TGI in the experiment with SK-MEL-5 melanoma is 8.5 µM; in the experiment with UACC-62 melanoma, above 27.6 µM; with OVCAR-8 ovarian, 65.1 µM; in the experiment with CCRF-CEM leukemia, above 43.2 µM; in the experiment with EKVX NSCLC, above 100 µM; with SNB-19 CNS it was above 100 µM. Further, the TGI was above 100 µM with NCI-H460 lung, 17.1 µM in the experiment with NCI-H522 lung and 12.2 µM with RXF 393 renal.

Source of the values: PubChem BioAssay (NCI).
